# From patent US10100011B2, “Pentadienoyl piperidine derivative and use thereof” (Industry-Academic Cooperation Foundation, Yonsei University, priority 2014, dated 2018)
# Key:
# Type in all cases: in vivo, mouse
# C57BL/6J mice [1] = test: Oral glucose tolerance test, fasting blood glucose and insulin in mice fed high-fat diet
# Procedure: (§1) An obesity induction diet used in this experiment was a high-fat diet (HFD: 40% fat calories, 17 g of lard+3% corn oil/100 g diet), and the compositions of diets including the LJ-2501, LJ-2488, LJ-2495, LJ-2496 compounds were identical to that of HFD, except that each of the compounds was included in an amount of about 0.05% (Table 2). As a control drug, an anti-obesity drug, sibutramine (Sibut), was added in an amount of about 0.01% to the high-fat diet and a normal diet group (Chow) was fed with commercial rodent chow.
# (§2) 5-week old 40 male C57BL/6J mice (Orient Bio., Korea) were fed with hard feed and accommodated in a laboratory environment for one week. Subsequently, in accordance with a randomized block method, the mice were randomly grouped into a normal diet group, a high-fat diet control group, two experimental substance groups, and […] and raised for a total of 10 weeks (n=8/group). Diets were supplied with water between 10 am and 11 am every day. An intake amount was measured every day and the body weights of the mice were measured every week. To prevent temporal weight change due to feed intake, feedboxes were removed and, after two hours, the body weights were measured. The experimental animals were fasted for 12 hours or more and then anesthetized with diethyl ether, followed by collecting blood, liver, and visceral adipose tissues (epididymal fat, perirenal fat, mesenteric fat, and retroperitoneal fat). The collected samples were washed with 0.1 M phosphate buffered saline (pH 7.4) and then weighed. Blood samples collected from abdominal aortas were centrifuged at 1000×g for 15 minutes, thereby separating plasma.
# The experimental animals were fasted for 18 hours after being raised eight weeks for experiment and orally administered d-glucose in an amount of 2 g/kg body weight. At 15 minutes, 30 minutes, 60 minutes, 120 minutes after the d-glucose administration, blood was collected from the tail veins of the mice. A glucose concentration in the collected blood was measured by means of a strip-operated blood glucose sensor (ONETOUCH Ultra, Inverness Medical Ltd. Stockport, UK).
# A glucose concentration in plasma during fasting was measured by means of an automatic biochemical analyzer (Express Plus, Chiron Diagnostics Co., USA) and a kit reagent for analysis was purchased from Bayer (Tarrytown, N.Y., USA). An insulin concentration in plasma was measured using the Rat Insulin RIA kit (LINCO Research, Inc, St. Charles, USA).
# [2] = test system: genes related to adipose tissue generation and thermogenesis in visceral fat tissue; test: Gene (RT-PCR) and protein (Western blotting) expression in visceral (epididymal) fat tissue of mice; conditions: compound in high-fat diet
# Procedure: (§3) 1 ml of a TRIzol solution per 0.1 g of epididymal fat tissue was added to the pulverized tissue, followed by centrifuging at 4° C. and 12,000×g for 10 minutes. A supernatant was transferred into a new tube and then 200 μl of chloroform was added thereto, followed by vortexing. This process was repeated twice and then a supernatant was transferred into a new tube. Subsequently, isopropanol and the supernatant were mixed in a ratio of 1:1 and strongly shook ten times, followed by standing at room temperature for 10 minutes. Subsequently, centrifugation was carried out at 12,000×g and 4° C. for 10 minutes, followed by removing a supernatant and adding 1 ml of 70% ethanol to the remaining precipitate. Subsequently, centrifugation was carried out at 7,500×g and 4° C. for five minutes. Ethanol was removed and then the tube containing an RNA precipitate was dried at room temperature for five minutes. The dried RNA pellet was dissolved in nuclease free water. The concentrations of the extracted RNA samples were measured at wavelengths of 260 nm and 280 nm by means of a UV/VIS spectrophotometer (Beckman Coulter, DU730). In addition, the extracted RNA samples were electrophoresed on an agarose gel to confirm the quality of the RNA samples.
# The RNA samples extracted from epididymal fat tissue were subjected to reverse transcription using oligo dT primers and the Superscript reverse transcription enzyme (GIBCO BRL, Gaithersburg, Md., USA), thereby synthesizing cDNAs. Each of the synthesized cDNAs was used as a template and 5′ and 3′ flanking sequences of cDNA of each of genes to be amplified were used as primers, thereby performing PCR. 1 μl of each of amplified PCR products was electrophoresed on a 1% agarose gel and a DNA band was observed.
# A predetermined amount of visceral fat or liver tissue was homogenized with liquid nitrogen and a lysis buffer in a mortar and then centrifuged at 13,000 rpm and 4° C. for 20 minutes. Subsequently, a middle layer was collected and subjected to protein quantification according to the Bradford method. 50 μg of a protein was electrophoresed on an SDS polyacryamide gel and then electro-blotted on hyperfilm PVDF. A reaction was carried out using a corresponding antibody and detection was performed using ECL.
# [3] = test system: genes related to lipogenesis and AMPK in liver tissue; test: Gene (RT-PCR) and protein (Western blotting) expression in liver tissue of mice; conditions: compound in high-fat diet, pattern similar to Chow group
# Procedure: as §3, with “The dried RNA pellet was dissolved in nuclease free water.” left out, “In addition, the extracted RNA samples were electrophoresed on an agarose gel to confirm the quality of the RNA samples.” left out
# A predetermined amount of visceral fat or liver tissue was homogenized with liquid nitrogen and a lysis buffer in a mortar and then centrifuged at 13,000 rpm and 4° C. for 20 minutes. Subsequently, a middle layer was collected and subjected to protein quantification according to the Bradford method. […]
# C57BL/6J mice [4] = test: Liver weight, liver tissue lipid concentrations and hepatic function indicators in blood of mice fed high-fat diet; conditions: about 0.05% compound in high-fat diet, 10 weeks
# Procedure: as §1, §2
# Lipid components were extracted from liver tissue in accordance with the method by Folch, et al. (Folch J, Lees M, Sloane Stanley G H. A simple method for the isolation and purification of total lipids from animal tissues. J Biol Chem. 1957; 226:497-509). In particular, 1 mL of distilled water was added to 0.25 g of a liver tissue sample and then homogenized by means of a Polytron homogenizer (IKA-WERKE GmbH & Co., Ultra-Turrax, Staufen, Germany). To the homogenized solution, 5 mL of a solution including chloroform and methanol (mixed in a ratio of 2:1, v/v) was added, followed by uniformly mixing. Subsequently, centrifugation was carried out at 1000×g for 10 minutes and a lower solution was separated. To a formed supernatant, 2 mL of a mixture including chloroform and methanol (mixed in a ratio of 2:1, v/v) was added, followed by repeating the same procedure. As a result, lipid components were completely isolated from the liver samples. To an obtained lower solution, 3 mL of a mixture including chloroform, methanol, and 0.05% CaCl2 (mixed in a ratio of 3:48:47, v/v/v) was added, followed by mixing for one minute. Subsequently, centrifugation was carried out at 1000×g for 10 minutes. A final lower solution was collected and completely dried with a nitrogen gas. Subsequently, the dried lipid was dissolved in 1 mL of methanol and used for lipid component analysis. The concentrations of neutral fat and cholesterol in the lipid extracts extracted from the liver tissue were measured using the same commercial lipid analysis kit (Bio Clinical System) as that used in the plasma analysis.
# Glutamate oxaloacetate transferase (GOT) and glutamate pyruvate transferase (GPT) activity in serum during fasting were measured by means of an automatic biochemical analyzer (Express Plus, Chiron Diagnostics Co., USA). A kit for analysis was purchased from Bayer (Tarrytown, N.Y., USA).
# [5] = RT-PCR, levels similar to Chow group
smiles,measurement,setting,value
"CSc1ccc(/C=C/C=C/C(=O)N2CCCCC2)cc1 [LJ-2501, (2E,4E)-5-(4-(methylthio)phenyl)-1-(piperine-1-yl)penta-2,4-diene-1-one]",blood glucose concentrations after oral glucose compared to HFD (in words),"C57BL/6J mice [1]; 2 g/kg glucose orally, 15, 30, 60 and 120 minutes",reduced in all time slots
same,"insulin resistance index (HOMA-IR), reduction compared to HFD","C57BL/6J mice [1]; calculated from fasting glucose and insulin, 10 weeks",61%
same,"blood glucose concentration during fasting, reduction compared to HFD",C57BL/6J mice [1]; compound in high-fat diet for 10 weeks,20%
same,"blood insulin concentration, reduction compared to HFD","C57BL/6J mice [1]; compound in high-fat diet for 10 weeks, fasting",59%
same,"area under the curve (AUC) of blood glucose concentration, reduction compared to HFD","C57BL/6J mice [1]; oral glucose tolerance test, 2 g/kg glucose",35%
same,"expression levels of NRF-1, COX2 and TFAM in visceral fat tissue",[2]; RT-PCR,increasing
same,"gene expression levels of PGC-1α, SIRT1 and UCP1 in visceral adipose tissue compared to HFD",[2]; [5],increased
same,"mRNA expression of C/EBPα, PPARγ2 and target genes (CD36, FAS, leptin) in epididymal fat tissue compared to HFD",[2]; [5],reduced
same,phosphorylation level of CREB proteins in visceral adipose tissue,[2]; Western blotting,increased
same,"HFD-caused increase of expression of downstream genes of AMPK (LXRα, SREBP-1c, LPL, FAS, ACC) in liver tissue",[3]; RT-PCR,reversed
same,HFD-caused reduction of AMPK phosphorylation in liver tissue,[3]; Western blotting,reversed
same,"hepatic function indexes (ALT, AST) in the blood, reduction compared to HFD",C57BL/6J mice [4],60-65%
same,"liver tissue cholesterol concentration, reduction compared to HFD",C57BL/6J mice [4],53%
same,"liver tissue free fatty acid concentration, reduction compared to HFD",C57BL/6J mice [4],77%
same,"liver tissue neutral fat concentration, reduction compared to HFD",C57BL/6J mice [4],35%
same,"liver weight, reduction compared to high-fat diet control group",C57BL/6J mice [4],41%
same,size of the liver compared to HFD group (photograph),C57BL/6J mice [4],relatively small
